# Assay results reported in patent US20250186439A1, “PYK2 INHIBITION MODULATES IMMUNE CELL FUNCTION” (The Children's Medical Center Corporation, priority 2022, published 2025).
# Entries after “also recorded” stand apart in the source; their conditions may differ.
# Legend:
# MG6 cells [1] = assay: Phagocytosis of pHrodo Red E. coli BioParticles by MG6 cells (confocal, IMARIS spot analysis); type: cell-based, mouse; settings: 1000 nM, 24 h
# Description: FIGS. 5A-5D. Characteristics of Pyk2 inhibition on phagocytotic activity in microglia. FIG. 5A: Immunofluorescent imaging depicting phagocytosis of pHrodo Red E. coli BioParticles by MG6 cells after exposure to Pyk2 inhibitors. MG6 cells were either untreated (left) or treated with 1000 nM Pyk2 inhibitor treatment for 24 hours (right). Immunofluorescent images were obtained via confocal microscopy (×600). MG6 cells were fixed and stained with phalloidin-AlexaFluor488 to visualize actin, and with DAPI to visualize nuclei (encircled). Scale bar is 20 μm. […] FIG. 5B: Immunofluorescent imaging depicting phagocytosis of pHrodo Red E. coli BioParticles by mononucleated and multinucleated MG6 cells after exposure to Pyk2 inhibitors. MG6 cells were treated and imaged as in FIG. 5A. After obtaining three-dimensional images, BioParticles are quantified by a spot analysis using IMARIS software (bottom figures). FIG. 5C: Quantification of spot analysis in FIG. 5B. The output of IMARIS spot analysis was analyzed using one-way ANOVA. […] FIG. 5D: Phagocytotic activity for Aβ in MG6 cells. Immunostaining for Iba1 and Aβ in control and Pyk2 inhibitor treated group. MG6 cells were treated with Pyk2 inhibitor or vehicle for 24 hours and then Hilite-555 labelled Aβ42 was added for 24 hours. Data are representative images of four wells from three independent experiments. A 20 μm scale bar is in the bottom-left corner.
# To assess whether or not Pyk2 inhibitor treated, multinuclear MG6 cells were also more phagocytic, treated MG6 cells were subsequently exposed to pHrodo Red E. coli BioParticles (Thermo Fisher Scientific #P35360), a fluorogenic phagocytic substrate derived from Escherichia coli. […] To assess if there was any difference in the phagocytosis of mononucleated and multinucleated MG6 cells, treated cells were assessed via confocal microscopy to generate three-dimensional images of phagocytosed particles, which were then quantified using IMARIS cell imaging software (FIG. 5B).
# MG6 cells [2] = assay: Phagocytosis of pHrodo Red E. coli BioParticles by sorted mono-/multinuclear MG6 cells (fluorescence plate reader); type: cell-based, mouse
# Description: FIGS. 7A-7D. Pyk2 inhibition promotes the phagocytotic activity and inflammatory responses in microglia. FIG. 7A: Quantification of the effect of Pyk2 inhibitor treatment on proliferation of mononucleated and multinucleated MG6 cells. MG6 cells were pretreated with 1000 nM Pyk2 inhibitor for 24 hours and mono-/multi-nuclear cells were isolated and collected by fluorescent activated cell sorting. […] There is no difference in proliferation of mononuclear cells after Pyk2 inhibitor treatment compared to untreated control cells. FIG. 7B: Fluorescent imaging depicting the effect of Pyk2 inhibitor on phagocytosis of mononucleated and multinucleated MG6 cells. MG6 cells were pretreated with 1000 nM Pyk2 inhibitor for 24 hours and mono-/multi-nuclear cells were isolated and collected by fluorescent activated cell sorting. After sorting, cells were treated with pHrodo Red E. coli BioParticles. Representative images are shown at ×20 magnification level. FIG. 7C: Quantification of phagocytosis of mononucleated and multinucleated MG6 cells over time. After Pyk2 inhibitor treatment and cell sorting, MG6 cells were treated with pHrodo Red E. coli BioParticles for the indicated time. Fluorescence intensity was measured by fluorescence microplate reader at excitation/emission wavelengths of 560/580 nm. […] FIG. 7D: Quantification of the effect of Pyk2 inhibitor treatment on cytokine/chemokine levels of mononucleated and multinucleated MG6 cells. The relative mRNA levels of IL-6, IL-1β, IL-10, and TGF-β were measured by a real-time PCR (qPCR). Measured mRNA transcript levels are reported as the mean level±standard deviation (n=3; *: p-value<0.05; **: p-value <0.01; ***: p-value <0.005; ****: p-value <0.001; and *****: p-value <0.0005).
# Next, the differences in the activity of mononucleated and multinucleated microglial cells in response to Pyk2 inhibition was further assessed. […] Mononucleated and multinucleated MG6 cells also differed regarding the cytokines and chemokines produced by each (FIG. 7D).
# [3] = 4 and 5 hours after pHrodo treatment
compound,measurement,setting,value
CN(c1ccccc1CNc1nc(Nc2ccc3c(c2)CC(=O)N3)ncc1C(F)(F)F)S(C)(=O)=O [PF-431396],"phagocytic activity, treated mononuclear and multinuclear microglia combined vs controls",MG6 cells [1],significantly higher
same,"phagocytosis of pHrodo Red E. coli BioParticles, mononucleated treated cells vs control",MG6 cells [1]; listed as Pyk2 inhibitor,no significant difference
same,"phagocytosis of pHrodo Red E. coli BioParticles, multinucleated treated cells vs control/mononucleated",MG6 cells [1]; listed as Pyk2 inhibitor,statistically significant increase; also recorded: significantly higher
same,"phagocytosis of pHrodo BioParticles, sorted mononucleated cells vs control",MG6 cells [2]; 1000 nM pretreatment,did not
same,"phagocytosis of pHrodo BioParticles, sorted multinucleated cells vs control",MG6 cells [2]; 1000 nM pretreatment,increase in phagocytosis
same,"phagocytic activity, Pyk2-mono vs control",MG6 cells [2]; [3],do not show significant difference
same,"phagocytic activity, Pyk2-multi vs Pyk2-mono and controls",MG6 cells [2]; [3],higher phagocytic activity
same,"phagocytic activity, sorted mononuclear cells (Pyk2-mono)",MG6 cells [2]; 3 hours after pHrodo treatment,increased fluorescence signal
same,"phagocytic activity, sorted multinuclear cells (Pyk2-multi)","MG6 cells [2]; 3 hours after pHrodo treatment, listed as Pyk2 inhibitor",statistically significant increase; also recorded: increased fluorescence signal
